Reference: publication PMC7394586 (OncoTargets and therapy, 2020)

Assays:
MHCC97-H cells [1] = experiment: MTT cell survival assay; assay type: cell-based, human; conditions: for change of IC50 on MHCC97-H cells on overexpression of miR-3609: miR-3609 overexpression versus control
[2] = Cell-based metabolism/clearance of sorafenib; assay type: in vitro ADME, human; conditions: human, MHCC97-H cells, Half-Life Time (t1/2, h), MHCC97-H, Cell-based, 1 μmol/L sorafenib
MHCC97-H cells [3] = experiment: Cell-based metabolism/clearance of sorafenib; assay type: in vitro ADME, human; conditions: LC-MS/MS, cultured HCC cells
[4] = tested on: MHCC97-H subcutaneous tumors; experiment: Tumor-based clearance of sorafenib in subcutaneous tumors; assay type: in vivo, nude mice; conditions: Control, sorafenib injected into subcutaneous tumors
[5] = tested on: PDC No. 1 subcutaneous tumors; experiment: as above; assay type: in vivo, nude mice; conditions: PDC No. 1, Tumor-based, Control; sorafenib injected into subcutaneous tumors
[6] = tested on: PDC No. 3 subcutaneous tumors; experiment: as above; assay type: in vivo, nude mice; conditions: PDC No. 3, Tumor-based, miR-3609; sorafenib injected into subcutaneous tumors
[7] = tested on: MHCC97-H subcutaneous growth; experiment: Antitumor effect in vivo, subcutaneous tumor model; parameters: species or system nude mice; conditions: for IC50 values of Soarfenib on Subcutaneous Tumor Weights: MHCC97-H, oral administration every 2 days, 10 treatments
[8] = tested on: PDC No. 1 subcutaneous growth; experiment: Antitumor effect in vivo, subcutaneous tumor model; parameters: species or system nude mice; conditions: oral administration every 2 days, 10 treatments
[9] = tested on: PDC No. 2 subcutaneous growth; experiment: Antitumor effect in vivo, subcutaneous tumor model; parameters: species or system nude mice; conditions: oral administration every 2 days, 10 treatments
[10] = tested on: PDC No. 3 subcutaneous growth; experiment: Antitumor effect in vivo, subcutaneous tumor model; parameters: species or system nude mice; conditions: oral administration every 2 days, 10 treatments
[11] = tested on: PDC No. 4 subcutaneous growth; experiment: Antitumor effect in vivo, subcutaneous tumor model; parameters: species or system nude mice; conditions: oral administration every 2 days, 10 treatments
[12] = tested on: PDC No. 5 subcutaneous growth; experiment: Antitumor effect in vivo, subcutaneous tumor model; parameters: species or system nude mice; conditions: oral administration every 2 days, 10 treatments
[13] = Clinical outcome of advanced HCC patients who received sorafenib treatment; assay type: in vivo, human
[14] = patients with EPAS-1 mRNA expression High (n = 26)
[15] = patients with EPAS-1 mRNA expression Low (n = 26)
[16] = patients with miR-3609 expression High (n = 26)
[17] = patients with miR-3609 expression Low (n = 26)

Compound: COc1cc2c(Oc3ccc4[nH]c(C)cc4c3F)ccnc2cc1OCC1(N)CC1 [anlotinib]
- change of IC50 on MHCC97-H cells on overexpression of miR-3609 (MHCC97-H cells [1]): decreased

Compound: CNC(=O)c1cc(Oc2ccc(NC(=O)Nc3ccc(Cl)c(C(F)(F)F)c3)c(F)c2)ccn1 [regorafenib]
- change of IC50 on MHCC97-H cells on overexpression of miR-3609 (MHCC97-H cells [1]): decreased

Compound: COc1cc2nccc(Oc3ccc(NC(=O)NC4CC4)c(Cl)c3)c2cc1C(N)=O [lenvatinib]
- change of IC50 on MHCC97-H cells on overexpression of miR-3609 (MHCC97-H cells [1]): decreased

Compound: N#CC1(c2ccc(NC(=O)c3cccnc3NCc3ccncc3)cc2)CCCC1 [apatinib]
- change of IC50 on MHCC97-H cells on overexpression of miR-3609 (MHCC97-H cells [1]): decreased

Compound: CNC(=O)c1cc(Oc2ccc(NC(=O)Nc3ccc(Cl)c(C(F)(F)F)c3)cc2)ccn1 [sorafenib]
- survival of MHCC97-H cells (MHCC97-H cells [1]; 0.01-10 μmol/L): inhibited the survival of MHCC97-H cells in a dose-dependent manner
- change of IC50 on MHCC97-H cells on overexpression of miR-3609 (MHCC97-H cells [1]): decreased
- half-life at 1 μmol/L ([2]; Control): 18.6 ± 2.46 h
- half-life at 1 μmol/L ([2]; miR-3609 + EPAS-1^Mut): 18 ± 3.18 h
- half-life at 1 μmol/L ([2]; miR-3609): 37.1 ± 6.12 h
- metabolism and clearance in HCC cells (MHCC97-H cells [3]): gradually metabolized and cleared
- Half-Life Time (t1/2, h) [4]: 30.73 ± 6.46 h
- Half-Life Time (t1/2, h) [5]: 26.32 ± 6.91 h
- Half-Life Time (t1/2, h) [6]: 50.73 ± 4.02 h
- IC50 values of Soarfenib on Subcutaneous Tumor Weights ([7]; Control): 2.25 ± 0.44 mg/kg
- IC50 values of Soarfenib on Subcutaneous Tumor Weights ([7]; miR-3609 + EPAS-1^Mut): 2.51 ± 0.52 mg/kg
- IC50 values of Soarfenib on Subcutaneous Tumor Weights ([7]; miR-3609): 0.15 ± 0.02 mg/kg
- subcutaneous growth of MHCC97-H cells ([7]; nude mice, oral administration): inhibited the subcutaneous growth of MHCC97-H cells in a dose-dependent manner
- IC50 values of Soarfenib on Subcutaneous Tumor Weights ([8]; PDC No. 1, Control): ~3 mg/kg
- IC50 values of Soarfenib on Subcutaneous Tumor Weights ([8]; PDC No. 1, miR-3609 + EPAS-1^Mut): >3 mg/kg
- IC50 values of Soarfenib on Subcutaneous Tumor Weights ([8]; PDC No. 1, miR-3609): 0.87 ± 0.39 mg/kg
- IC50 values of Soarfenib on Subcutaneous Tumor Weights ([9]; PDC No. 2, Control): 1.77 ± 0.20 mg/kg
- IC50 values of Soarfenib on Subcutaneous Tumor Weights ([9]; PDC No. 2, miR-3609 + EPAS-1^Mut): 2.20 ± 0.45 mg/kg
- IC50 values of Soarfenib on Subcutaneous Tumor Weights ([9]; PDC No. 2, miR-3609): 0.48 ± 0.10 mg/kg
- IC50 values of Soarfenib on Subcutaneous Tumor Weights ([10]; PDC No. 3, Control): 1.99 ± 0.54 mg/kg
- IC50 values of Soarfenib on Subcutaneous Tumor Weights ([10]; PDC No. 3, miR-3609 + EPAS-1^Mut): 1.81 ± 0.41 mg/kg
- IC50 values of Soarfenib on Subcutaneous Tumor Weights ([10]; PDC No. 3, miR-3609): 0.30 ± 0.04 mg/kg
- IC50 values of Soarfenib on Subcutaneous Tumor Weights ([11]; PDC No. 4, Control): 2.70 ± 0.70 mg/kg
- IC50 values of Soarfenib on Subcutaneous Tumor Weights ([11]; PDC No. 4, miR-3609 + EPAS-1^Mut): 2.76 ± 0.62 mg/kg
- IC50 values of Soarfenib on Subcutaneous Tumor Weights ([11]; PDC No. 4, miR-3609): 0.95 ± 0.60 mg/kg
- IC50 values of Soarfenib on Subcutaneous Tumor Weights ([12]; PDC No. 5, Control): 2.88 ± 0.39 mg/kg
- IC50 values of Soarfenib on Subcutaneous Tumor Weights ([12]; PDC No. 5, miR-3609 + EPAS-1^Mut): 2.32 ± 0.69 mg/kg
- IC50 values of Soarfenib on Subcutaneous Tumor Weights ([12]; PDC No. 5, miR-3609): 0.66 ± 0.21 mg/kg
- OS (overall survival) [13, 14]: 11.0 M
- TTP (time to progress) [13, 14]: 8.0 M
- OS (overall survival) [13, 15]: 16.0 M
- TTP (time to progress) [13, 15]: 13.0 M
- OS (overall survival) [13, 16]: 15.0 M
- TTP (time to progress) [13, 16]: 12.0 M
- OS (overall survival) [13, 17]: 12.0 M
- TTP (time to progress) [13, 17]: 8.0 M
